Data reported in the NIST ThermoML archive (doi:10.1007/s10765-010-0860-3).

Experiment: xn = mol fraction of the nth substance listed
Conditions: 101 kPa, Liquid; for viscosity: Capillary tube (Ostwald / Ubbelohde) method; for mass density: Pycnometric method

CC1COC(=O)O1 (configuration not stated) [4-methyl-1,3-dioxolan-2-one] + C1COCCO1
Conditions	mass density, 288.15 K [kg/m3]	mass density, 298.15 K [kg/m3]	mass density, 308.15 K [kg/m3]	viscosity, 288.15 K [mPa·s]	viscosity, 298.15 K [mPa·s]	viscosity, 308.15 K [mPa·s]
x1 = 0.0213	1042.6	1031.46	1020.15	1.429	1.181	1.027
x1 = 0.041	1045.89	1034.79	1023.54	1.421	1.177	1.027
x1 = 0.0636	1049.76	1038.7	1027.51	1.413	1.174	1.02
x1 = 0.0823	1053.01	1041.99	1030.85	1.408	1.173	1.026
x1 = 0.0999	1056.12	1045.13	1034.02	1.404	1.172	1.022
x1 = 0.202	1074.8	1064.02	1053.09	1.408	1.184	1.028
x1 = 0.299	1093.28	1082.69	1071.87	1.45	1.22	1.053
x1 = 0.3991	1112.62	1101.92	1091.44	1.534	1.286	1.102
x1 = 0.4991	1131.72	1121.15	1110.7	1.659	1.381	1.171
x1 = 0.5987	1150.06	1139.4	1129.1	1.826	1.508	1.274
x1 = 0.6996	1167.4	1156.75	1146.43	2.039	1.671	1.405
x1 = 0.8049	1183.66	1172.85	1162.59	2.307	1.878	1.571
x1 = 0.9003	1196.16	1185.45	1175.02	2.589	2.101	1.748
x1 = 1	1208.67	1197.58	1187.16	3.086	2.5	2.073

CC(=O)CC(C)=O [2,4-pentanedione] + CC1COC(=O)O1
Conditions	mass density, 288.15 K [kg/m3]	mass density, 298.15 K [kg/m3]	mass density, 308.15 K [kg/m3]	viscosity, 288.15 K [mPa·s]	viscosity, 298.15 K [mPa·s]	viscosity, 308.15 K [mPa·s]
x2 = 0	980.34	972.18	963.46	0.741	0.67	0.609
x2 = 0.0212	984.24	975.79	966.83	0.769	0.692	0.627
x2 = 0.0438	988.61	979.89	970.69	0.797	0.714	0.646
x2 = 0.0625	992.42	983.48	974.11	0.821	0.732	0.661
x2 = 0.0827	996.68	987.54	977.99	0.845	0.751	0.677
x2 = 0.1026	1001.03	991.71	982	0.868	0.769	0.693
x2 = 0.201	1024.5	1014.55	1004.29	0.978	0.857	0.766
x2 = 0.2982	1050.05	1039.83	1029.34	1.086	0.944	0.838
x2 = 0.4028	1078.89	1068.64	1058.14	1.215	1.047	0.922
x2 = 0.5	1105.74	1095.61	1085.24	1.359	1.162	1.014
x2 = 0.6016	1132.67	1122.7	1112.52	1.549	1.313	1.133
x2 = 0.6985	1156.08	1146.19	1136.15	1.782	1.495	1.277
x2 = 0.7995	1176.95	1166.95	1156.95	2.093	1.735	1.466
x2 = 0.9016	1193.11	1182.69	1172.51	2.493	2.04	1.706

CC1COC(=O)O1 (configuration not stated) [4-methyl-1,3-dioxolan-2-one] + C1CCOC1
Conditions	mass density, 288.15 K [kg/m3]	mass density, 298.15 K [kg/m3]	mass density, 308.15 K [kg/m3]	viscosity, 288.15 K [mPa·s]	viscosity, 298.15 K [mPa·s]	viscosity, 308.15 K [mPa·s]
x1 = 0.0188	901.15	890.25	879.17	0.524	0.47	0.432
x1 = 0.0393	910.03	899.18	888.14	0.542	0.479	0.439
x1 = 0.0603	918.97	908.19	897.18	0.561	0.49	0.448
x1 = 0.077	926	915.27	904.28	0.575	0.5	0.455
x1 = 0.0988	935.05	924.38	913.41	0.594	0.513	0.466
x1 = 0.2117	979.75	969.45	958.45	0.696	0.6	0.541
x1 = 0.3057	1014.39	1004.06	993.26	0.794	0.699	0.629
x1 = 0.4024	1047.72	1037.25	1026.68	0.921	0.831	0.745
x1 = 0.4992	1078.98	1068.45	1057.96	1.088	0.998	0.89
x1 = 0.5997	1109.33	1098.74	1088.29	1.317	1.211	1.072
x1 = 0.7015	1138.16	1127.39	1117.06	1.626	1.473	1.289
x1 = 0.8033	1165.19	1154.55	1144.02	2.03	1.786	1.54
x1 = 0.9064	1190.96	1179.68	1169.74	2.556	2.158	1.83
x1 = 1	1208.67	1197.58	1187.16	3.086	2.5	2.073
